Patent publication US6509035B1, “Oral preparation of coenzyme a useful for lowering blood lipid and a method producing for same” (Shanghai Materia Medica Bioengineering Institute, priority 1999, dated 2003)

Columns and labels:
serum cholesterol = experiment: Effect of CoA on serum cholesterol in patients with hyperlipemia; type: in vivo, human; conditions: oral 35 units three times daily
Experimental: (§1) Object: Individuals with plasma lipid more than 90% of upper limit of normal person were chosen, i.e. serum cholesterol >230 mg %, or triglyceride >160 mg %, 39 patients in total, 14 male, aged from 28-65; 25 female, aged from 32 to 70.
(§2) Oral dosage of CoA: one tablet per time, 35 units per tablet, administered on empty stomach three times daily. Three months was used as a course of treatment. During the course of the administration, the patients had diet same as the normal and stopped the administration of any other lipid-lowering medicament.
(§3) Measurement of plasma lipid: venous blood samples were taked from 12-14 hrs-fasting patients before administration and one month and 3 months after administration. Concentration of serum cholesterol and triglyceride were measured after isolation of serum. In the meantime, each patients' medical history was inquired, blood pressure was measured and liver function was determined.
(2) Effect on cholesterol: Statistical analysis was carried out on the difference of the concentration of serum cholesterol of patients with hyperlipemia between before and after the administration of CoA by individual comparison test.

peripheral platelet = experiment: Effect of CoA on peripheral platelet of experimental dogs; type: in vivo, dog
Experimental: Object: 10 experimental dogs were used and devided into 2 groups of 5 to which oral or injection preparations of CoA was adminisered, respectively. Their peripheral platelet samples were taken and tested at intervals to observe the differences between before and after administration.
Dosage of CoA: Oral administration group, 100 units per time, twice per day. Injection administration group, 35 units per time, twice per day.
Result: Statistical analysis were carried out on the changes of the number of platelets before and after the administration of CoA to dogs by individual comparison test. It is noted that exogenous CoA can improve the level of platelet in experimental dogs in a short time either administered by oral or injection route.

serum triglyceride = experiment: Effect of CoA on serum triglyceride in patients with hyperlipemia; type: in vivo, human; conditions: oral 35 units three times daily
Experimental: as §1, §2, §3
(1) Effect on triglyceride: Statistical analysis were carried out on the difference of the concentration of serum triglyceride of hyperlipemia patients between before and after the administration of CoA by individual comparison test.

`CC(C)(COP(=O)(O)OP(=O)(O)OC[C@H]1O[C@@H](n2cnc3c(N)ncnc32)[C@H](O)[C@@H]1OP(=O)(O)O)[C@@H](O)C(=O)NCCC(=O)NCCS` [CoA, coenzyme A] was tested, and the “Average difference of serum cholesterol concentration between before and after administration (decrement)” value (serum cholesterol; one month) was 25.7 mg %, the “Average difference of serum cholesterol concentration between before and after administration (decrement)” value (serum cholesterol; three months) was 22.1 mg % and the “Average increment of platelets” value (peripheral platelet; injection administration group, day 8 (P<0.01)) was 170,800 /mm^3. For the same molecule, the “Average increment of platelet” value (peripheral platelet; injection administration, 35 units twice per day, sampling time 1) was 0.28 10,000/mm^3, the “Average increment of platelet” value (peripheral platelet; injection administration, 35 units twice per day, sampling time 3) was 7.44 10,000/mm^3 and the “Average increment of platelet” value (peripheral platelet; injection administration, 35 units twice per day, sampling time 6) was 5.48 10,000/mm^3. The “Average increment of platelet” value (peripheral platelet; injection administration, 35 units twice per day, sampling time 8) was 17.08 10,000/mm^3, the “Average increment of platelet” value (peripheral platelet; injection administration, 35 units twice per day, sampling time 10) was 11.36 10,000/mm^3 and the “Average increment of platelet” value (peripheral platelet; injection administration, 35 units twice per day, sampling time 13) was 3.68 10,000/mm^3. The “Average increment of platelets” value (peripheral platelet; oral administration group, day 6 (P<0.05)) was 133,000 /mm^3, the “Average increment of platelet” value (peripheral platelet; oral administration, 100 units twice per day, sampling time 1) was 8.64 10,000/mm^3 and the “Average increment of platelet” value (peripheral platelet; oral administration, 100 units twice per day, sampling time 3) was 8.06 10,000/mm^3. For the same molecule, the “Average increment of platelet” value (peripheral platelet; oral administration, 100 units twice per day, sampling time 6) was 13.3 10,000/mm^3, the “Average increment of platelet” value (peripheral platelet; oral administration, 100 units twice per day, sampling time 8) was 4.25 10,000/mm^3 and the “Average increment of platelet” value (peripheral platelet; oral administration, 100 units twice per day, sampling time 10) was 1.96 10,000/mm^3. The “Average increment of platelet” value (peripheral platelet; oral administration, 100 units twice per day, sampling time 13) was −2.52 10,000/mm^3, the “Average difference of triglyceride concentration between before and after administration (decrement)” value (serum triglyceride; one month) was 64.2 mg % and the “Average difference of triglyceride concentration between before and after administration (decrement)” value (serum triglyceride; three months) was 75.5 mg %.
